This is an account of results in US9988430B2, “Stable GLP-1 based GLP-1/glucagon receptor co-agonists” (Novo Nordisk A/S, priority 2014, dated 2018).

*1 amine or outer side, *2 acyl side, *3 side chain or, on linkers, in order; H or OH if unused. Where a SMILES comes first, the peptide text is derived from it. Side-chain parts run from the residue outwards. [ ]: non-standard residue; d: D form. The star is where a group is joined. C18 diacid = O=C(O)CCCCCCCCCCCCCCCCC(=O)*; γGlu = O=C(O)[C@H](CCC(=O)[*:2])N[*:1]; Desaminohistidyl = O=C(CCc1c[nH]cn1)*; Ac4c = NC1(C(=O)O)CCC1; AEEA = NCCOCCOCC(=O)O

For experiment [1], the target named is T1, human GLP-1 receptor (Homo sapiens, UniProt P43220).
T1 construct: expressed in transfected cells; host or cells: membranes of BHK cells, parent line BHKTS13, clone FCW467-12A
T1 sequence (P43220 24-463): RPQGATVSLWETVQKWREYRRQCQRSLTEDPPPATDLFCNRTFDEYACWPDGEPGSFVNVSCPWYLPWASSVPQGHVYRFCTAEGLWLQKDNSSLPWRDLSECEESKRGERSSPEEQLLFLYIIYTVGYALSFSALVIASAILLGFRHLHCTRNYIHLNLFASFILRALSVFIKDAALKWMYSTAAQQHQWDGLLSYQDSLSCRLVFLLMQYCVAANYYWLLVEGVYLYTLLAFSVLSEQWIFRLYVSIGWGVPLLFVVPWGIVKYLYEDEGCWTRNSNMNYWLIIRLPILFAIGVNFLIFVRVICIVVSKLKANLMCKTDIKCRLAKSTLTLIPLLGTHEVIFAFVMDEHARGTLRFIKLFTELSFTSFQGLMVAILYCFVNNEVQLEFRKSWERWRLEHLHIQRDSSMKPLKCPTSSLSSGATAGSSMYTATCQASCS
The experiment can be described thus: Assay (I)(a): GLP-1 receptor potency, CRE luciferase reporter gene assay in BHK cells. Format: cell-based. The note with it: BHK cells expressing human GLP-1 receptor, read-out: EC50 GLP-1R. As for the experimental part:
Assay (I): GLP-1 and Glucagon Receptor Potency The purpose of this example was to test the activity or potency, of the GLP-1 derivatives of the invention, in vitro. The in vitro potency is the measure of human GLP-1 receptor (GLP-1R) or glucagon receptor (glucagonR) activation, respectively, in a whole cell assay. In vitro potency was determined by measuring the cellular response of human GLP-1 or glucagon receptor activation, respectively, in a reporter gene assay. The assay was performed in a BHK cell line that stably expresses either the human GLP-1 receptor or the human glucagon receptor and comprises the DNA for the cAMP response element (CRE) coupled to a promoter and the gene for firefly luciferase (CRE luciferase). […] When assay incubation was completed, the luciferase substrate (luciferin) was added and the enzyme converted luciferin to oxyluciferin and produces bioluminescence. The luminescence was measured as the readout for the assay. (a) GLP-1 Receptor Activation The cells used in this assay (clone FCW467-12A/KZ10-1) were BHK cells with BHKTS13 as a parent cell line. The cells were derived from a clone (FCW467-12A) that expresses the human GLP-1 receptor and were established by further transfection with CRE luciferase to obtain the current clone. The cells were cultured at 5% CO2 in DMEM medium with 10% FBS, 1×GlutaMAX, 1 mg/ml G418, 240 nM MTX (methotrexate) and 1% pen/strep (penicillin/streptomycin). They were aliquoted and stored in liquid nitrogen. Before each assay, an aliquot was taken up and washed three times in PBS before being suspended at the desired concentration in assay medium. For 96-well plates the suspension was made to give a final concentration of 5×10EE3 cells/well. The following chemicals were used in the assay: Pluronic F-68 (10%) (Gibco 2404), Ovalbumin (Sigma A5503), DMEM w/o phenol red (Gibco 11880-028), 1 M Hepes (Gibco 15630), Glutamax 100× (Gibco 35050) and steadylite plus (PerkinElmer 6016757). Assay Medium consisted of DMEM w/o phenol red, 10 mM Hepes, 1×GlutaMAX, 2% Ovalbumin and 0.2% Pluronic F-68. Cell stocks were thawed in a 37° C. water bath. Cells were washed three times in PBS. The cells were counted and adjusted to 5×10EE3 cells/50 μl (1×10EE5 cells/ml) in Assay Medium. A 50 μl aliquot of cells was transferred to each well in the assay plate. Stocks of the test compounds and reference compounds were diluted to a concentration of […] in Assay Medium. Compounds were diluted 10-fold to give the following concentrations: 2×10EE-6 M, 2×10EE-7 M, 2×10EE-8 M; 2×10EE-9 M, 2×10EE-10 M, 2×10EE-11 M, 2×10EE-12 M and 2×10EE-13 M. For each compound a blank assay medium control was also included. A 50 μl aliquot of compound or blank was transferred from the dilution plate to the assay plate. Compounds were tested at the following final concentrations: 1×10EE-6 M, 1×10EE-7 M, 1×10EE-8 M; 1×10EE-9 M, 1×10EE-10 M, 1×10EE-11 M and 1×10EE-12 M and 1×10EE-13 M. The assay plate was incubated for 3 h in a 5% CO2 incubator at 37° C. The assay plate was removed from the incubator and allowed to stand at room temperature for 15 min. A 100 μl aliquot of steadylite plus reagent was added to each well of the assay plate (reagent is light sensitive). Each assay plate was covered with aluminum foil to protect it from light and shaken for 30 min at room temperature. Each assay plate was read in a Perkin Elmer TopCount NXT instrument. The data from the TopCount instrument was transferred to GraphPad Prism software. The software performed a non-linear regression (log(agonist) vs response-Variable slope (four parameter)). EC50 values were calculated by the software and reported in pM.
On the technique in general: Reporter assays use an easily measured gene product as a stand-in for the process of interest.

The target in experiment [2] is T1, human GLP-1 receptor. The experiment can be described thus: Assay (II)(a): GLP-1 receptor binding, [125I]GLP-1 displacement, SPA on BHK membranes. The note with it: displacement of [125I]GLP-1, membranes with human GLP-1 receptor; read-out: IC50 GLP-1R. As for the experimental part: Assay (II): GLP-1 and Glucagon Receptor Binding The purpose of this assay is to test the in vitro receptor binding activity of the GLP-1 derivatives of the invention. (a) GLP-1 Receptor Binding The GLP-1 receptor (GLP-1R) binding is a measure of the affinity of a derivative for the human GLP-1 receptor. The GLP-1 receptor binding of each derivatives were determined with competitive binding, displacing [^125I]GLP-1 bound to GLP-1 receptors expressed in cell membranes associated with wheat germ agglutinin (WGA) scintillation proximity assay (SPA) beads. Each derivative was added in a series of concentrations to isolated membranes comprising the human GLP-1 receptor and displacement of the labelled radioligand was monitored. The receptor binding was reported as the concentration at which half of the labelled ligand is displaced from the receptor, the IC^50 value. The following chemicals were used in the assay: MEM w/o phenol red (Gibco 11880-028), Pen/strep (Invitrogen 15140-122), G418 (Invitrogen 10131-027), 1 M Hepes (Gibco 15630), EDTA (Invitrogen 15575-038), PBS (Invitrogen 14190-094), fetal calf serum (Invitrogen 16140-071), EGTA, MgCl2 (Merck 1.05832.1000), Tween 20 (Amresco 0850C335), SPA particles (wheat germ agglutinin (WGA) SPA beads, Perkin Elmer RPNQ0001), [125I]-GLP-1]-(7-36)NH2 (produced in-house), OptiPlate™-96 (Perkin Elmer). Buffer 1 consisted of 20 mM Na-HEPES plus 10 mM EDTA and pH was adjusted to 7.4. Buffer 2 consisted of 20 mM Na-HEPES plus 0.1 mM EDTA and pH was adjusted to 7.4. Assay buffer consisted of 50 mM HEPES supplemented with 5 mM EGTA, 5 mM MgCl2, 0.005% Tween 20 and pH was adjusted to 7.4. A 0.02% albumin stock consisted of HSA dissolved at 0.02% (w/v) in assay buffer. The cells used in this assay (clone FCW467-12A) were BHK cells with BHKTS13 as a parent cell line. The cells express the human GLP-1 receptor. The cells were grown at 5% CO2 in DMEM, 10% fetal calf serum, 1% Pen/Strep (Penicillin/Streptomycin) and 1.0 mg/ml of the selection marker G418. To make a membrane preparation the cells were grown to approximately 80% confluence. The cells were washed twice in phosphate-buffered saline and harvested. The cells were pelleted using a brief centrifugation and the cell pellet was kept on ice. The cell pellet was homogenised with ULTRA-THURRAX dispersing instrument for 20-30 seconds in a suitable amount of buffer 1 (e.g., 10 ml). The homogenate was centrifuged for 15 minutes. The pellet was re-suspended (homogenised) in 10 ml buffer 2 and centrifuged. This step was repeated once more. The resulting pellet was re-suspended in buffer 2 and the protein concentration was determined. The membranes were aliquoted and stored at minus 80° C. • 1. For the receptor binding assay 50 μl of the assay buffer was added to each well of an assay plate. • 2. Test compounds were serially diluted to give the following concentrations: 8×10EE-7 M, 8×10EE-8 M, 8×10EE-9 M, 8×10EE-10 M, 8×10EE-11 M, 8×10EE-12 M and 8×10EE-13 M. Twenty-five μl were added to appropriate wells in the assay plate. • 3. Cell membrane aliquots were thawed and diluted to their working concentration. Fifty μl were added to each well in the assay plate. • 4. WGA SPA beads were suspended in assay buffer at 20 mg/ml. The suspension was diluted to 10 mg/ml in assay buffer just prior to addition to the assay plate. Fifty μl were added to each well in the assay plate. • 5. The incubation was started by adding 25 μl of 480 pM solution of [125I]-GLP-1]-(7-36)NH2 to each well of the assay plate. A 25 μl aliquot was reserved for measuring total counts/well. • 6. The assay plate was incubated for 2 h at 30° C. • 7. The assay plate was centrifuged for 10 min. • 8. The assay plate was read in a Perkin Elmer TopCount NXT instrument. Calculations The data from the TopCount instrument were transferred to GraphPad Prism software. The software averaged the values for the replicates and performed a non-linear regression. IC50 values were calculated by the software and reported in nM. […]

As a reminder, the EC50 is the concentration at which the effect is half-maximal. What is called IC50 is the concentration at which inhibition is half-maximal.

`CC[C@H](C)[C@H](NC(=O)[C@H](Cc1ccccc1)NC(=O)[C@H](CCC(=O)O)NC(=O)[C@H](CCCNC(=N)N)NC(=O)[C@H](C)NC(=O)[C@H](C)NC(=O)[C@H](CCC(N)=O)NC(=O)[C@H](CCC(=O)O)NC(=O)[C@H](CCC(=O)O)NC(=O)[C@H](CC(C)C)NC(=O)[C@H](Cc1ccc(O)cc1)NC(=O)[C@H](CCCNC(=N)N)NC(=O)[C@H](CO)NC(=O)[C@H](Cc1ccc(O)cc1)NC(=O)[C@H](CC(=O)O)NC(=O)[C@H](CO)NC(=O)[C@@H](NC(=O)[C@H](Cc1ccccc1)NC(=O)[C@@H](NC(=O)CNC(=O)[C@H](Cc1c[nH]cn1)NC(=O)C1(NC(=O)CCc2c[nH]cn2)CCC1)[C@@H](C)O)[C@@H](C)O)C(=O)N[C@@H](C)C(=O)N[C@@H](Cc1c[nH]c2ccccc12)C(=O)N[C@@H](CC(C)C)C(=O)N[C@@H](CC(C)C)C(=O)N[C@@H](CCCNC(=N)N)C(=O)N[C@@H](CCCCNC(=O)CC[C@H](NC(=O)COCCOCCNC(=O)CC[C@H](NC(=O)COCCOCCNC(=O)CC[C@H](NC(=O)COCCOCCNC(=O)CC[C@H](NC(=O)CC[C@H](NC(=O)CCCCCCCCCCCCCCCCC(=O)O)C(=O)O)C(=O)O)C(=O)O)C(=O)O)C(=O)O)C(N)=O` [Example 22, N^ε35-[(4S)-4-carboxy-4-[[2-[2-[2-[[(4S)-4-carboxy-4-[[2-[2-[2-[[(4S)-4-carboxy-4-[[2-[2-[2-[[(4S)-4-carboxy-4-[[(4S)-4-carboxy-4-(17-carboxyheptadecanoylamino)butanoyl]amino]butanoyl]amino]ethoxy]ethoxy]acetyl]amino]butanoyl]amino]ethoxy]ethoxy]acetyl]amino]butanoyl]amino]ethoxy]ethoxy]acetyl]amino]butanoyl]-[Imp7,Acb8,His9,Tyr16,Arg18,Glu22,Arg26,Leu33,Arg34,Lys35]-GLP-1-(7-35)-peptide amide] (Desaminohistidyl-[Ac4c]HGTFTSDYSRYLEEQAAREFIAWLLRK([γGlu-AEEA-γGlu-AEEA-γGlu-AEEA-γGlu-γGlu-C18 diacid])-NH2): at human GLP-1 receptor [1], the EC50 stood at 0.003 nM. Further, the half-maximal inhibitory concentration (IC50) at human GLP-1 receptor [2] worked out at 0.9 nM.

As for `CC[C@H](C)[C@H](NC(=O)[C@H](Cc1ccccc1)NC(=O)[C@H](CCC(=O)O)NC(=O)[C@H](CCCNC(=N)N)NC(=O)[C@H](C)NC(=O)[C@H](C)NC(=O)[C@H](CCC(N)=O)NC(=O)[C@H](CCCNC(=N)N)NC(=O)[C@H](CCC(=O)O)NC(=O)[C@H](CC(C)C)NC(=O)[C@H](Cc1ccc(O)cc1)NC(=O)[C@H](CCCCN)NC(=O)[C@H](CO)NC(=O)[C@H](Cc1ccc(O)cc1)NC(=O)[C@H](CC(=O)O)NC(=O)[C@H](CO)NC(=O)[C@@H](NC(=O)[C@H](Cc1ccccc1)NC(=O)[C@@H](NC(=O)CNC(=O)[C@H](Cc1c[nH]cn1)NC(=O)C1(NC(=O)CCc2c[nH]cn2)CCC1)[C@@H](C)O)[C@@H](C)O)C(=O)N[C@@H](C)C(=O)N[C@@H](Cc1c[nH]c2ccccc12)C(=O)N[C@@H](CC(C)C)C(=O)N[C@@H](CC(C)C)C(=O)N[C@@H](CCCCN)C(=O)N[C@@H](CCCCNC(=O)CC[C@H](NC(=O)COCCOCCNC(=O)CC[C@H](NC(=O)COCCOCCNC(=O)CC[C@H](NC(=O)COCCOCCNC(=O)CC[C@H](NC(=O)CC[C@H](NC(=O)CCCCCCCCCCCCCCCCC(=O)O)C(=O)O)C(=O)O)C(=O)O)C(=O)O)C(=O)O)C(N)=O` [Example 23, N^ε35-[(4S)-4-carboxy-4-[[2-[2-[2-[[(4S)-4-carboxy-4-[[2-[2-[2-[[(4S)-4-carboxy-4-[[2-[2-[2-[[(4S)-4-carboxy-4-[[(4S)-4-carboxy-4-(17-carboxyheptadecanoylamino)butanoyl]amino]butanoyl]amino]ethoxy]ethoxy]acetyl]amino]butanoyl]amino]ethoxy]ethoxy]acetyl]amino]butanoyl]amino]ethoxy]ethoxy]acetyl]amino]butanoyl]-[Imp7,Acb8,His9,Tyr16,Lys18,Arg22,Arg26,Leu33,Lys35]-GLP-1-(7-35)-peptide amide] (Desaminohistidyl-[Ac4c]HGTFTSDYSKYLERQAAREFIAWLLKK([γGlu-AEEA-γGlu-AEEA-γGlu-AEEA-γGlu-γGlu-C18 diacid])-NH2), the EC50 at human GLP-1 receptor [1] turned out to be 0.007 nM. Also, the IC50 on human GLP-1 receptor [2] was 2.3 nM.
